Experiment: membrane/water partition coefficient calculated from CV peak current ratio of uncoated and PVC membrane-coated GC electrode (Equation 1)
Format: physicochemical

Pmw (membrane/water partition coefficient) (PVC membrane I (o-NPOE), Cw=1 mM, iw/im ~140, Dm=4×10^−8 cm^2/s, Dw=8×10^−6 cm^2/s): 0.1
Pmw (membrane/water partition coefficient) (membrane III (DOS), same protocol): 0.5
Pmw (membrane/water partition coefficient) (membrane V (1-octanol), same protocol): 1.6
SMILES: CC(=O)Nc1ccc(O)cc1 [APAP, 4-acetamidophenol]

— patent publication US11375929B2, “Method and device for detection of bioavailable drug concentration in a fluid sample” (THE UNIVERSITY OF TENNESSEE RESEARCH FOUNDATION, priority 2008, dated 2022)
